Values joined by “and” are separate entries in the source; they are usually repeats but may differ in a detail not shown here. Identical values can stand only once. Toxic doses and inconclusive results are not listed.
Tested on: BDF1 mice, P388 leukemia ip, median survival T/C
Assay: NCI In Vivo Anticancer Drug Screen. Data for tumor model P388 Leukemia (intraperitoneal) in B6D2F1 (BDF1) mice
Settings: endpoint: median survival time, higher = longer survival
Method in brief: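 Transplantable tumour in mice; compound vs vehicle dosing; survival scored; ratio of treated to control reported.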

[1] = dose: 50.0 mg/kg/injection, schedule: Q01DX009 (ip), vehicle: saline with Tween-80
[2] = dose: 100.0 mg/kg/injection, schedule: Q01DX009 (ip), vehicle: saline with Tween-80
[3] = dose: 200.0 mg/kg/injection, schedule: Q01DX009 (ip), vehicle: saline with Tween-80
[4] = dose: 6.25 mg/kg/injection, schedule: Q01DX009 (ip), vehicle: Klucel (hydroxypropylcellulose) (HPC)
[5] = dose: 100.0 mg/kg/injection, schedule: Q04DX003 (ip), vehicle: saline with Tween-80
[6] = dose: 200.0 mg/kg/injection, schedule: Q04DX003 (ip), vehicle: saline with Tween-80
[7] = dose: 400.0 mg/kg/injection, schedule: Q01DX009 (ip), vehicle: saline with Tween-80
[8] = dose: 400.0 mg/kg/injection, schedule: Q04DX003 (ip), vehicle: saline with Tween-80
[9] = dose: 25.0 mg/kg/injection, schedule: Q01DX009 (ip), vehicle: saline with Tween-80
[10] = dose: 12.5 mg/kg/injection, schedule: Q01DX009 (ip), vehicle: saline with Tween-80
[11] = dose: 25.0 mg/kg/injection, schedule: Q01DX009 (ip), vehicle: saline
[12] = dose: 50.0 mg/kg/injection, schedule: Q01DX009 (ip), vehicle: saline

CC(C)NC(=O)c1ccccc1S(=O)c1ccccc1C(=O)NC(C)C
T/C [1]: 104 % of control
T/C [2]: 100 % of control
T/C [3]: 108 % of control

CN=C(N)c1ccc(NC(=O)c2ccc(C(=O)Nc3ccc(C(N)=NC)cc3)c(N)c2)cc1
T/C (dose: 2.0 mg/kg/injection, schedule: Q04DX003 (ip), vehicle: Klucel (hydroxypropylcellulose) (HPC)): 107 % of control
T/C (dose: 2.6 mg/kg/injection, schedule: Q01DX009 (ip), vehicle: Klucel (hydroxypropylcellulose) (HPC)): 190 % of control
T/C (dose: 3.0 mg/kg/injection, schedule: Q04DX003 (ip), vehicle: Klucel (hydroxypropylcellulose) (HPC)): 115 % of control
T/C (dose: 4.0 mg/kg/injection, schedule: Q01DX009 (ip), vehicle: Klucel (hydroxypropylcellulose) (HPC)): 263 % of control
T/C (dose: 6.0 mg/kg/injection, schedule: Q01DX009 (ip), vehicle: Klucel (hydroxypropylcellulose) (HPC)): 272 % of control
T/C [4]: 150 % of control
T/C (dose: 8.0 mg/kg/injection, schedule: Q04DX003 (ip), vehicle: Klucel (hydroxypropylcellulose) (HPC)): 150 % of control and 175 % of control
T/C (dose: 12.0 mg/kg/injection, schedule: Q04DX003 (ip), vehicle: Klucel (hydroxypropylcellulose) (HPC)): 170 % of control and 190 % of control
T/C (dose: 12.5 mg/kg/injection, schedule: Q04DX003 (ip), vehicle: Klucel (hydroxypropylcellulose) (HPC)): 169 % of control
T/C (dose: 18.0 mg/kg/injection, schedule: Q04DX003 (ip), vehicle: Klucel (hydroxypropylcellulose) (HPC)): 150 % of control and 209 % of control

CC(=O)Nc1ccc(/C=C/C(=O)c2ccc(Cl)cc2)cc1
T/C [2]: 100 % of control
T/C [5]: 104 % of control
T/C [3]: 100 % of control
T/C [6]: 100 % of control
T/C [7]: 100 % of control
T/C [8]: 90 % of control

CCC1=C(c2cc(Cl)c3ccccc3c2OCC(=O)O)OC(CC)(C(=O)c2cc(Cl)c3ccccc3c2OCC(=O)O)CC1 (stereo unspecified)
T/C [9]: 90 % of control
T/C [1]: 95 % of control
T/C (dose: 50.0 mg/kg/injection, schedule: Q04DX003 (ip), vehicle: saline sonified): 100 % of control
T/C [2]: 115 % of control
T/C (dose: 200.0 mg/kg/injection, schedule: Q04DX003 (ip), vehicle: saline sonified): 90 % of control

CSc1nnc([N+](=O)[O-])s1
T/C (dose: 1.56 mg/kg/injection, schedule: Q01DX009 (ip), vehicle: Klucel (hydroxypropylcellulose) (HPC)): 110 % of control
T/C (dose: 3.12 mg/kg/injection, schedule: Q01DX009 (ip), vehicle: Klucel (hydroxypropylcellulose) (HPC)): 100 % of control
T/C [4]: 110 % of control

FC(F)(F)c1cccc(C(c2ccccc2)(c2ccccc2)n2cncn2)c1
T/C [1]: 114 % of control
T/C [2]: 109 % of control
T/C [3]: 100 % of control

Oc1ccccc1-c1nnc2n1N=C(c1ccc(-c3ccccc3)cc1)CS2
T/C [1]: 98 % of control
T/C [2]: 98 % of control
T/C [3]: 92 % of control

CSCC1(O)CCCCC1
T/C [1]: 111 % of control
T/C [2]: 101 % of control
T/C [3]: 112 % of control

O=C1NC(=O)C2(CCc3ccccc3C2)N1 (stereo unspecified)
T/C [9]: 97 % of control
T/C [1]: 99 % of control and 107 % of control
T/C [2]: 96 % of control and 104 % of control
T/C [3]: 96 % of control and 97 % of control
T/C [7]: 92 % of control

C[n+]1ccc(Nc2ccc(NC(=O)c3ccc(N)cc3)cc2)cc1
T/C (dose: 12.5 mg/kg/injection, schedule: Q01DX009 (ip), vehicle: water): 101 % of control
T/C (dose: 12.5 mg/kg/injection, schedule: Q04DX003 (ip), vehicle: water): 100 % of control
T/C (dose: 25.0 mg/kg/injection, schedule: Q04DX003 (ip), vehicle: water): 98 % of control
T/C (dose: 50.0 mg/kg/injection, schedule: Q04DX003 (ip), vehicle: water): 100 % of control and 106 % of control
T/C (dose: 100.0 mg/kg/injection, schedule: Q01DX009 (ip), vehicle: water): 155 % of control
T/C (dose: 100.0 mg/kg/injection, schedule: Q04DX003 (ip), vehicle: water): 116 % of control and 117 % of control
T/C (dose: 200.0 mg/kg/injection, schedule: Q01DX009 (ip), vehicle: water): 154 % of control
T/C (dose: 400.0 mg/kg/injection, schedule: Q01DX009 (ip), vehicle: water): 180 % of control
T/C (dose: 500.0 mg/kg/injection, schedule: Q04DX003 (ip), vehicle: water): 123 % of control
T/C (dose: 600.0 mg/kg/injection, schedule: Q04DX003 (ip), vehicle: water): 103 % of control

NC(Cc1ccccc1Cl)C(=O)O (stereo unspecified)
T/C [10]: 86 % of control
T/C [9]: 101 % of control
T/C [11]: 122 % of control
T/C [1]: 107 % of control
T/C [12]: 116 % of control
T/C [2]: 102 % of control
T/C [3]: 94 % of control

COc1cc(O)c2c(c1)OC(c1ccc(OC)c(O)c1)CC2=O (stereo unspecified)
T/C (dose: 12.5 mg/kg/injection, schedule: Q01DX009 (ip), vehicle: alcohol): 117 % of control
T/C (dose: 50.0 mg/kg/injection, schedule: Q01DX009 (ip), vehicle: alcohol): 109 % of control
T/C (dose: 100.0 mg/kg/injection, schedule: Q01DX009 (ip), vehicle: alcohol): 92 % of control

O=C(/C=C\c1ccc(O)c(O)c1)OC1C(O)CC(OC(=O)/C=C/c2ccc(O)c(O)c2)(C(=O)O)CC1O (stereo unspecified)
T/C (dose: 100.0 mg/kg/injection, schedule: Q01DX001 (ip), vehicle: saline): 95 % of control
T/C (dose: 100.0 mg/kg/injection, schedule: Q04DX003 (ip), vehicle: Klucel (hydroxypropylcellulose) (HPC)): 100 % of control
T/C (dose: 200.0 mg/kg/injection, schedule: Q01DX001 (ip), vehicle: saline): 95 % of control
T/C (dose: 200.0 mg/kg/injection, schedule: Q04DX003 (ip), vehicle: Klucel (hydroxypropylcellulose) (HPC)): 100 % of control
T/C (dose: 400.0 mg/kg/injection, schedule: Q01DX001 (ip), vehicle: saline): 95 % of control
T/C (dose: 400.0 mg/kg/injection, schedule: Q04DX003 (ip), vehicle: Klucel (hydroxypropylcellulose) (HPC)): 95 % of control

O=C(CN1CCCCC1)Nc1nc(-c2ccc(Cl)cc2)cs1
T/C (dose: 100.0 mg/kg/injection, schedule: Q01DX005 (ip), vehicle: saline with Tween-80): 91 % of control

OCC1CC=CCC1 (stereo unspecified)
T/C (dose: 100.0 mg/kg/injection, schedule: Q01DX009 (ip), vehicle: saline): 114 % of control
T/C (dose: 200.0 mg/kg/injection, schedule: Q01DX009 (ip), vehicle: saline): 109 % of control
T/C (dose: 400.0 mg/kg/injection, schedule: Q01DX009 (ip), vehicle: saline): 119 % of control

C=C1C(=O)OC2/C=C(\C)C(=O)/C=C\C(C)(O)CC(OC(=O)C(C)C)C12 (stereo unspecified)
T/C (dose: 25.0 mg/kg/injection, schedule: Q01DX009 (ip), vehicle: saline + alcohol): 100 % of control

Cc1ccc(C)c(OS(=O)(=O)c2ccc([N+](=O)[O-])cc2)c1
T/C (dose: 100.0 mg/kg/injection, schedule: Q01DX001 (ip), vehicle: saline sonified): 100 % of control
T/C (dose: 200.0 mg/kg/injection, schedule: Q01DX001 (ip), vehicle: saline sonified): 104 % of control
T/C (dose: 400.0 mg/kg/injection, schedule: Q01DX001 (ip), vehicle: saline sonified): 90 % of control

COC(=O)C1c2cc3c(c(O)c2CCC1(C)O)C(=O)c1c(O)cc2c(c1C3=O)OC1OC2(C)C(O)C(N(C)C)C1O (stereo unspecified)
T/C (dose: 11.0 mg/kg/injection, schedule: Q01DX009 (ip), vehicle: saline): 113 % of control
T/C (dose: 200.0 mg/kg/injection, schedule: Q01DX010 (ip), vehicle: saline): 105 % of control

N=C(N)SCc1ccc(C(=O)Oc2ccc([N+](=O)[O-])cc2)cc1
T/C [11]: 104 % of control
T/C [12]: 90 % of control
T/C (dose: 50.0 mg/kg/injection, schedule: Q04DX003 (ip), vehicle: saline): 110 % of control
T/C (dose: 100.0 mg/kg/injection, schedule: Q04DX003 (ip), vehicle: saline): 110 % of control

CCCCCCC(O)CCCCCCCCCCC(=O)O (stereo unspecified)
T/C [2]: 95 % of control
T/C [3]: 95 % of control
T/C [7]: 100 % of control

[O]=[Sb]([c]1ccccc1)([c]1ccccc1)[c]1ccccc1
T/C (dose: 25.0 mg/kg/injection, schedule: Q04DX003 (ip), vehicle: saline with Tween-80): 106 % of control
T/C (dose: 50.0 mg/kg/injection, schedule: Q04DX003 (ip), vehicle: saline with Tween-80): 101 % of control
T/C [5]: 114 % of control

N#CC(/C=C/c1ccccc1)Nc1ccccc1 (stereo unspecified)
T/C [5]: 104 % of control
T/C [6]: 100 % of control
T/C [8]: 100 % of control

Nc1ccc(OCCCCNC(=O)c2ccc(S(=O)(=O)F)cc2)c(Cl)c1
T/C (dose: 0.78 mg/kg/injection, schedule: Q01DX009 (ip), vehicle: saline with Tween-80): 94 % of control
T/C (dose: 1.56 mg/kg/injection, schedule: Q01DX009 (ip), vehicle: saline with Tween-80): 111 % of control
T/C (dose: 3.12 mg/kg/injection, schedule: Q01DX009 (ip), vehicle: saline with Tween-80): 102 % of control
T/C (dose: 6.25 mg/kg/injection, schedule: Q01DX009 (ip), vehicle: saline with Tween-80): 100 % of control
T/C [10]: 102 % of control
T/C [9]: 86 % of control and 100 % of control and 115 % of control
T/C [1]: 110 % of control
T/C [2]: 117 % of control
T/C [5]: 103 % of control
T/C [3]: 110 % of control
T/C [6]: 99 % of control

From PubChem BioAssay AID328 (DTP/NCI, 2004)
